What was measured:
Measured Log P = assay type: physicochemical
[1] = 90/30 mg split daily dosing; cited from earlier work
[2] = Shoaf, 2013; cited from earlier work

logP (Measured Log P): > 3
SMILES: Cc1ccccc1C(=O)Nc1ccc(C(=O)N2CCCC(O)c3cc(Cl)ccc32)c(C)c1 (stereo not drawn) [tolvaptan]
individuals with ALT elevations (reported by Woodhead) [1]: approximately 8% | exposure in subjects with impaired renal function compared to healthy individuals [2]: increased exposure
